In patent US10501425B2, “Microbiocidal oxadiazole derivatives” (SYNGENTA PARTICIPATIONS AG, priority 2015, dated 2019):
Where “and” joins values, the source holds several entries; their conditions need not be identical. Identical values can stand only once.

Assays:
Phakopsora pachyrhizi = Phakopsora pachyrhizi / soybean / leaf disc preventative (Asian soybean rust); assay type: in vivo; conditions: foliar, 200 ppm in the applied formulation, soybean leaf disks, compared to untreated, read-out: disease control
How it was run: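 Read-out is percent disease control relative to untreated check discs, assessed once untreated discs show adequate disease, 12 to 14 days after application. Compounds, tested at 200 ppm in the applied formulation, are sprayed onto soybean leaf discs one day before inoculation with a spore suspension.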

[1] = test system: Puccinia recondita f. Sp. Tritici; test: Puccinia recondita f. sp. tritici / wheat / leaf disc preventative (brown rust); assay type: in vivo; conditions: foliar, 200 ppm in the applied formulation, wheat leaf segments cv. Kanzler, preventative (inoculated 1 day after application), compared to untreated, read-out: disease control
How it was run: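 Compound, diluted from DMSO solution into aqueous 0.025% Tween20, is sprayed at 200 ppm onto cut wheat segments (cv. Kanzler) placed on water agar. One day on, segments receive a fungal spore suspension and are incubated at 19° C., 75% rh, 12 h photoperiod, with % control vs untreated scored at 7–9 days.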

[2] = test system: Puccinia recondita f. Sp. Tritici; test: Puccinia recondita f. sp. tritici / wheat / leaf disc curative (brown rust); assay type: in vivo; conditions: foliar, 24 h, 200 ppm in the applied formulation, wheat leaf segments cv. Kanzler, curative (applied 1 day after inoculation), compared to untreated, read-out: disease control
How it was run: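 Compounds, prepared from DMSO solutions of at most 10 mg/ml and diluted just before spraying, are applied curatively to inoculated Kanzler wheat leaf segments. Segments are incubated at 19° C and 75% RH in a climate cabinet; disease control relative to untreated is evaluated 6 to 8 days later.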

[3] = test system: Glomerella lacenarium (Colletotrichum lagenarium); test: Glomerella lagenarium liquid culture / cucumber / preventative (anthracnose); assay type: cell-based; conditions: Colletotrichum orbiculare; 20 ppm in the applied formulation; liquid culture (PDB), growth inhibition measured photometrically 3 to 4 days after application; compared to untreated; read-out: disease control
How it was run: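 Conidia from cryogenic storage were mixed into potato dextrose broth. This was added to compound diluted from DMSO into 0.025% Tween20, tested at 20 ppm. Plates were incubated in the dark at 24 °C and 96% relative humidity, and growth was read photometrically after 2–7 days as % activity versus untreated check.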

SMILES	melting point	pest or weed control at 200 ppm (Phakopsora pachyrhizi)	pest or weed control at 200 ppm [1]	pest or weed control at 200 ppm [2]	inhibition of growth at 20 ppm [3]
CCCOC(=O)NCc1ccc(-c2noc(C(F)(F)F)n2)cc1 [Compound 2.6, propyl N-[[4-[5-(trifluoromethyl)-1,2,4-oxadiazol-3-yl]phenyl]methyl]carbamate]	107.8 to 109.7 °C	≥ 80%	≥ 80%	≥ 80%	≥ 80%
COC(=O)NCCc1ccc(-c2noc(C(F)(F)F)n2)cc1 [Compound 2.36, methyl N-[2-[4-[5-(trifluoromethyl)-1,2,4-oxadiazol-3-yl]phenyl]ethyl]carbamat]	84.8 to 86.5 °C	≥ 80%	≥ 80%	≥ 80%	≥ 80%
COCCNC(=O)NCc1ccc(-c2noc(C(F)(F)F)n2)cc1 [Compound 3.3]	152 to 155 °C	≥ 80%	≥ 80%	≥ 80%	≥ 80%
CCC(=O)NC(C#N)c1ccc(-c2noc(C(F)(F)F)n2)cc1 (centres unmarked) [Compound 1.100, N-[cyano-[4-[5-(trifluoromethyl)-1,2,4-oxadiazol-3-yl]phenyl]methyl]propanamide]	185 to 186 °C	≥ 80%	≥ 80%	≥ 80%	≥ 80%
COCC(=O)NCc1ccc(-c2noc(C(F)(F)F)n2)cc1 [Compound 1.25, 2-methoxy-N-[[4-[5-(trifluoromethyl)-1,2,4-oxadiazol-3-yl]phenyl]methyl]acetamide]	127 to 128 °C	≥ 80%	≥ 80%	≥ 80%	≥ 80%
CC(OC(F)F)C(=O)NCc1ccc(-c2noc(C(F)(F)F)n2)cc1 (centres unmarked) [Compound 1.33, 2-(difluoromethoxy)-N-[[4-[5-(trifluoromethyl)-1,2,4-oxadiazol-3-yl]phenyl]methyl]propanamide]	66 to 70 °C	≥ 80%	≥ 80%	≥ 80%	≥ 80%
CON(C)C(=O)NC(C)(C)c1ccc(-c2noc(C(F)(F)F)n2)cc1 [Compound 3.25, 1-methoxy-1-methyl-3-[1-methyl-1-[4-[5-(trifluoromethyl)-1,2,4-oxadiazol-3-yl]phenyl]ethyl]urea]	78 to 83 °C	≥ 80%	≥ 80%	≥ 80%	≥ 80%
O=C(COC(F)F)NCc1ccc(-c2noc(C(F)(F)F)n2)cc1 [Compound 1.97, 2-(difluoromethoxy)-N-[[4-[5-(trifluoromethyl)-1,2,4-oxadiazol-3-yl]phenyl]methyl]acetamide]	92 to 100 °C	≥ 80%	≥ 80%	≥ 80%	≥ 80%
CON(C)C(=O)NCc1ccc(-c2noc(C(F)(F)F)n2)cc1 [Compound 3.2, 1-methoxy-1-methyl-3-[[4-[5-(trifluoromethyl)-1,2,4-oxadiazol-3-yl]phenyl]methyl]urea]	90.2 to 93.8 °C	≥ 80%	≥ 80%	≥ 80%	≥ 80%
CCC(=O)NC1(c2ccc(-c3noc(C(F)(F)F)n3)cc2)CC1 [Compound 1.99, N-[1-[4-[5-(trifluoromethyl)-1,2,4-oxadiazol-3-yl]phenyl]cyclopropyl]propanamide]	121 to 128 °C	≥ 80%	≥ 80%	≥ 80%	≥ 80%
CCC(=O)NCc1ccc(-c2noc(C(F)(F)F)n2)cc1F [Compound 1.26, N-[[2-fluoro-4-[5-(trifluoromethyl)-1,2,4-oxadiazol-3-yl]phenyl]methyl]propanamide]	99 to 110 °C	≥ 80%	≥ 80%	≥ 80%	≥ 80%
CON(C)C(=O)NC1(c2ccc(-c3noc(C(F)(F)F)n3)cc2)CC1 [Compound 3.26, 1-methoxy-1-methyl-3-[1-[4-[5-(trifluoromethyl)-1,2,4-oxadiazol-3-yl]phenyl]cyclopropyl]urea]	81 to 83 °C	≥ 80%	≥ 80%	≥ 80%	≥ 80%
O=C(CO)NCc1ccc(-c2noc(C(F)(F)F)n2)cc1 [Compound 1.27, 2-hydroxy-N-[[4-[5-(trifluoromethyl)-1,2,4-oxadiazol-3-yl]phenyl]methyl]acetamide]	107 to 112 °C		≥ 80%	≥ 80%	≥ 80%
CCC(=O)NCCc1ccc(-c2noc(C(F)(F)F)n2)cc1 [Compound 1.29, N-[2-[4-[5-(trifluoromethyl)-1,2,4-oxadiazol-3-yl]phenyl]ethyl]propanamide]	133.6 to 135 °C and 133 to 145 °C	≥ 80%	≥ 80%	≥ 80%	≥ 80%
O=C(NCc1ccc(-c2noc(C(F)(F)F)n2)cc1)C(F)(F)F [Compound 1.102, 2,2,2-trifluoro-N-[[4-[5-(trifluoromethyl)-1,2,4-oxadiazol-3-yl]phenyl]methyl]acetamide]	146 to 149 °C	≥ 80%	≥ 80%	≥ 80%	≥ 80%
CC(C)(O)C(=O)NCc1ccc(-c2noc(C(F)(F)F)n2)cc1 [Compound 1.104, 2-hydroxy-2-methyl-N-[[4-[5-(trifluoromethyl)-1,2,4-oxadiazol-3-yl]phenyl]methyl]propanamide]	95 to 98 °C		≥ 80%	≥ 80%	≥ 80%
CC(=O)NCc1ccc(-c2noc(C(F)(F)F)n2)cc1 [Compound 1.101, N-[[4-[5-(trifluoromethyl)-1,2,4-oxadiazol-3-yl]phenyl]methyl]acetamide]	130 to 135 °C	≥ 80%	≥ 80%	≥ 80%	≥ 80%
CCC(=O)NCc1ccc(-c2noc(C(F)(F)F)n2)cc1Cl [Compound 1.32, N-[[2-chloro-4-[5-(trifluoromethyl)-1,2,4-oxadiazol-3-yl]phenyl]methyl]propanamide]	126 to 130 °C	≥ 80%	≥ 80%		≥ 80%
CCC(=O)NC(C)(C)c1ccc(-c2noc(C(F)(F)F)n2)cc1 [Compound 1.93, N-[1-methyl-1-[4-[5-(trifluoromethyl)-1,2,4-oxadiazol-3-yl]phenyl]ethyl]propanamide]	142 to 146 °C	≥ 80%	≥ 80%	≥ 80%	≥ 80%
COCC(=O)NC1(c2ccc(-c3noc(C(F)(F)F)n3)cc2)CC1 [Compound 1.96, 2-methoxy-N-[1-[4-[5-(trifluoromethyl)-1,2,4-oxadiazol-3-yl]phenyl]cyclopropyl]acetamide]	95 to 99 °C	≥ 80%	≥ 80%	≥ 80%	≥ 80%
CNC(=O)NCc1ccc(-c2noc(C(F)(F)F)n2)cc1 [Compound 3.4, 1-methyl-3-[[4-[5-(trifluoromethyl)-l,2,4-oxadiazol-3-yl]phenyl]methyl]urea]	198 to 201 °C	≥ 80%	≥ 80%	≥ 80%	≥ 80%
CCCNC(=O)NCc1ccc(-c2noc(C(F)(F)F)n2)cc1 [Compound 3.6, 1-propyl-3-[[4-[5-(trifluoromethyl)-1,2,4-oxadiazol-3-yl]phenyl]methyl]urea]	174.1 to 176.4 °C	≥ 80%	≥ 80%		≥ 80%
CC(C)(C)OC(=O)NCCc1ccc(-c2noc(C(F)(F)F)n2)cc1 [Compound 2.1, tert-butyl N-[2-[4-[5-(trifluoromethyl)-1,2,4-oxadiazol-3-yl]phenyl]ethyl]carbamate]	81 to 83 °C and 81 to 83.1 °C		≥ 80%	≥ 80%	≥ 80%
